Reference: patent EP0907658B1 (PRINCE OF WALES MEDICAL RESEARCH INSTITUTE LIMITED, priority 1996, dated 2004)
Each block holds one substance with its values, some of them ahead of it. Ends that are not written are not given here.

Key:
[1] = system: neuropeptide Y Y2 (prejunctional); conditions: studies in vivo; cited from earlier work
[2] = system: neuropeptide Y Y1 receptor; conditions: studies in vivo; cited from earlier work
[3] = target: Y2-like receptors; assay: Inhibition of the increase in pulse interval evoked by vagus nerve stimulation in anaesthetised rats (prejunctional activity); format: in vivo; conditions: for EC50 ΔP1%: change in pulse interval, anaesthetised rats, intravenous peptide; for in vivo activity at Y2 receptors (potency as inhibitor of the effect of vagal stimulation on heart rate): compared with Ac[L28,L31]NPY24-36
Procedure: (§1) Experiments were carried out on adult rats (Wistar) of both sexes (250-350g), anaesthetised with sodium pentobarbitone (Nembutal, Boehringer-Ingleheim; 60 mg/kg, i.p.). The trachea was cannulated and the animal artificially ventilated. The femoral vein was cannulated for administration of peptides and further doses of anaesthetic. The left femoral artery was cannulated to record arterial pressure. Both vagus nerves were cut. […] The frequency was chosen to increase pulse interval by approximately 100 ms, a submaximal effect on this variable. The electrocardiogram was measured using needle electrodes and monitored on one channel of an osciloscope. Pulse interval (the period between successive beats of the heart) was recorded beat-by-beat by triggering from ECG. Pulse interval and arterial pressure were recorded on the pen recorder.
Dose-response curves were constructed from group data for all rats. Because of the long time-course of action of the peptides tested, not all peptides were given to each rat. Usually however, each rat received neuropeptide Y and two other peptides.
(§2) As an indication of prejunctional activity two parameters were measured; the maximum percent inhibition of the increase in pulse interval evoked by stimulation of the vagus nerve following injection of peptide and the time to half recovery of this effect (T50). For pressor action, an indicator of postjunctional activity, two parameters were also measured; the peak pressor response following injection of peptide and the duration of the increase in blood pressure. These indices give a reliable measure of the actions of a peptide at pre-and postjunctional sites, and have been used previously in this laboratory for this purpose; Potter et al., 1989; Potter et al., 1991). Results were analysed using a one-way ANOVA.

[4] = system: transmitter release from renal nerves; assay: Kidney blood flow: increase of renal vascular resistance elicited by renal nerve stimulation; format: in vivo, dogs; conditions: 40 nmol dose; Figure 1
Procedure: Experiments were carried out in six, adult, mongrel dogs of both sexes weighing between 18 and 26 kg. The dogs were anaesthetised with a bolus injection of sodium pentobarbitone (36 mg/kg intravenous; Nembutal, Boehringer Ingelheim) and then maintained on an infusion (2-3 mg/kg/hr). The animal was artificially ventilated, maintained at constant temperature and blood pressure and heart rate were monitored continuously.
The left kidney was exposed retroperitoneally and renal arterial blood flow was monitored continuously (Pernow & Lundberg, 1989a), using a transonic flow probe (Transonic System Inc., N.Y.). Postganglionic nerves to the kidney were isolated, cut and placed over bipolar, platinum electrodes for stimulation (1-10 Hz, 5-10 V, 1-5 msec).
The renal nerve was stimulated over a range of frequencies (1-10 Hz) for 30 secs and a frequency-response curve constructed. The responses were measured at the peak change in flow. […] Responses were reported as change in vascular resistance.

[5] = system: human Y2 receptor; assay: [125I]NPY receptor binding assay on SMS-MSN cells; conditions: for IC50: SMS-MSN cells, 30 pM [125I]NPY
Procedure: SK-N-MC cells expressing the human Y1 receptor and SMS-MSN cells expressing the human Y2 receptor were obtained from the ATCC. They were cultured in 1:1 DMEM:Ham's F12 medium (ICN) containing 10% fetal calf serum, 0.1% non-essential amino acids, 0.2 mM glutamine, and 0.056% sodium bicarbonate. Confluent cells were harvested in scraping and pellets were stored at -80°C. On the day of use cells were thawed, washed once in binding buffer salts, passed several times through a 22 ga. needle, and the protein content was assayed using bicinchoninic acid (BCA kit, Pierce).
Just before use, plates were filtered and washed twice with 50 mM Tris-HCI pH 7.4 / 0.1% BSA. […] Binding was terminated by filtration. […] Specific binding was analysed by nonlinear regression using a single-site fitting function (Graphpad Prism). Nonspecific binding was defined by binding in the presence of 1 µM competitor.

[6] = system: Y1 receptors; assay: Pressor response (blood pressure increase) after peptide injection in anaesthetised rats (postjunctional activity); format: in vivo
Procedure: as §1, with “The” for “The frequency was chosen to increase pulse interval by approximately 100 ms, a submaximal effect on this variable. The”
Dose-response curves were constructed from group data for all rats. Because of the long time-course of action of the peptides tested, not all peptides were given to each rat.
as §2, with “These indices give a reliable measure of the actions of a peptide at pre-and postjunctional sites, and have been used previously in this laboratory for this purpose; Potter et al., 1989; Potter et al., 1991).” left out

[7] = system: neuropeptide Y Y2 receptor subtype; conditions: SMS-KAN cells; cited from earlier work
[8] = system: human neuropeptide Y Y1 receptor; conditions: Y1 receptor expressed in fibroblast cells; cited from earlier work
[9] = system: neuropeptide Y Y1 receptor type; conditions: SK-N-MC cells; cited from earlier work

Substance: (Leu^17, Glu^19, Ala^21, Ala^22, Glu^23, Leu^28, Leu^31) neuropeptide Y-(13-36) [ANA neuropeptide Y-(13-36)]
prejunctional activity [1]: prejunctional activity equivalent to the whole neuropeptide Y molecule
pressor activity [2]: retained significant pressor activity

Substance: Ac-ARAALNAATRQRY-NH2 [Ac[A24,26,27,30,31,L28]NPY24-36]
EC50 ΔP1% [3]: 0.56 nmol
in vivo activity at Y2 receptors (potency as inhibitor of the effect of vagal stimulation on heart rate) [3]: enhanced in vivo activity at Y2 receptors

EC50 ΔP1% [3]: 0.89 nmol
Substance: Ac-ARHALNLLTRQRY-NH2 [Ac[A24,A27,L28,L31]NPY24-36, Ac[Ala24, Ala27, Leu28, Leu31]NPY(24-36)]
inhibition of the increase of renal vascular resistance elicited by renal nerve stimulation [4]: almost completely inhibited the effect of nerve stimulation
in vivo activity at Y2 receptors (potency as inhibitor of the effect of vagal stimulation on heart rate) [3]: enhanced in vivo activity at Y2 receptors
affinity for NPY Y2 receptors ([5]; in words): high affinity for NPY Y2 receptors
direct effect on the circulation ([6]; 40 nmol dose, Table 1): exerted no direct effect on the circulation

EC50 ΔP1% [3]: 0.46 nmol
Substance: Ac-ARHYLNLLTRQRY-NH2 [Ac[A24,L28,L31]NPY24-36]

EC50 ΔP1% [3]: 1.58 nmol
IC50 [5]: 2 nM
Substance: Ac-LAHYLNLLTRQRY-NH2 [Ac[A25,L28,L31]NPY24-36]

EC50 ΔP1% [3]: 1.95 nmol
Substance: Ac-LAHYRNLLTRQRY-NH2 [Ac[A25,R28,L31]NPY24-36]

EC50 ΔP1% [3]: 1.26 nmol
Substance: Ac-LRAYLNLLTRQRY-NH2 [Ac[A26,L28,L31]NPY24-36]

EC50 ΔP1% [3]: 0.52 nmol
Substance: Ac-LRHALNLLTRQRY-NH2 [Ac[A27,L28,L31]NPY24-36]

EC50 ΔP1% [3]: 2.75 nmol
Substance: Ac-LRHYANLLTRQRY-NH2 [Ac[A28,L31]NPY24-36]

EC50 ΔP1% [3]: 1.48 nmol
Substance: Ac-LRHYLALLTRQRY-NH2 [Ac[L28,A29,L31]NPY24-36]

EC50 ΔP1% [3]: 0.39 nmol
Substance: Ac-LRHYLNALTRQRY-NH2 [Ac[L28,A30,L31]NPY24-36]

EC50 ΔP1% [3]: 0.78 nmol
Substance: Ac-LRHYLNLATRQRY-NH2 [Ac[L28,A31]NPY24-36]

EC50 ΔP1% [3]: 6.46 nmol
Substance: Ac-LRHYLNLLARQRY-NH2 [Ac[L28,L31,A32]NPY24-36]

Substance: Ac-LRHYLNLLTRQRY-NH2 [Ac[L28,L31]NPY24-36]
EC50 ΔP1% [3]: 3.16 nmol
affinity for the neuropeptide Y Y2 receptor subtype [7]: significant affinity
IC50 [5]: 3.9 nM
increase in cytosolic calcium [8]: did hot stimulate
affinity for the neuropeptide Y Y1 receptor type [9]: no affinity

Substance: AcNPY 24-36
Increase in BP (rel to NPY) ([6]; anaesthetised rats, †: No response to 10 nmole dose): Of

Substance: Ac[A26,A27,L28,L31]NPY24-36 (Ac-LRAALNLLTRQRY; ends and bridges not checked; UniProt P01303 52-64, looked up, variant H26A Y27A I28L I31L) [Ac[A26,27,L28,31]NPY24-36]
in vivo activity at Y2 receptors (potency as inhibitor of the effect of vagal stimulation on heart rate) [3]: enhanced in vivo activity at Y2 receptors

EC50 ΔP1% [3]: 1.26 nmol
Substance: Ac[L28,I30]NPY24-36 (Ac-LRHYLNIITRQRY; ends and bridges not checked; UniProt P01303 52-64, looked up, variant I28L L30I)

Substance: Neuropeptide Y [NPY]
change of blood pressure ([6]; in vivo in rats, at the doses tested): raised blood pressure significantly in a dose-dependent manner
